Values quoted from earlier work, collected in US9463243B2, “Amorphous medicinal fine particles produced by pulsed laser ablation in liquid and the production method thereof” (IMRA AMERICA, INC., priority 2012, dated 2016).

SMILES: COc1cc(/C=C/C(=O)CC(=O)/C=C/c2ccc(O)c(OC)c2)ccc1O [Curcumin, curcumin]
- water solubility: water-insoluble
